Tested on: CA-MRSA cells
Assay: Broth dilution method, growth followed at OD600
Type: cell-based, Staphylococcus aureus
Conditions: stock solutions 20 μg/ml penicillin G, 20 μg/ml polymer, 40 μg/ml loaded polymer; 37° C., OD600 every 2 hours
Description: Broth dilution method was used to characterize the inhibition of penicillin G/polymer complex against CA-MRSA cells. Penicillin G, cationic cobaltocenium polymer or penicillin G/polymer complex was dissolved in water. Concentrations of the above solutions were at 20 μg/ml for penicillin G, 20 μg/ml for cationic polymer and 40 μg/ml penicillin G loaded polymer (20 μg/ml penicillin G and 20 μg/ml polymer). Solutions without polymers were prepared as the control samples. CA-MRSA cells were grown in tryptic soy broth (TSB) medium at 37° C. overnight. All bacteria were grown to an optical density of 1 (OD600=1). Then, the cells were diluted with TSB to give a bacterial assay stock with OD600=0.04. CA-MRSA cells ([…]) were added to each well in a 96 well assay plate.

CC1(C)S[C@@H]2[C@H](NC(=O)Cc3ccccc3)C(=O)N2[C@H]1C(=O)O [penicillin G, benzyl penicillin]
inhibition of CA-MRSA growth (OD600): some inhibition

From patent US9872917B2, “Anion-paired cationic metallocene-containing compounds and polymers as antimicrobial agents” (University of South Carolina, priority 2013, dated 2018)
